These results are taken from patent US8623860B2, “Azetidine derivatives, pharmaceutical compositions and uses thereof” (Boehringer Ingelheim International GmbH, priority 2011, dated 2014).

Chain of human ACC2 (O00763 129-2458): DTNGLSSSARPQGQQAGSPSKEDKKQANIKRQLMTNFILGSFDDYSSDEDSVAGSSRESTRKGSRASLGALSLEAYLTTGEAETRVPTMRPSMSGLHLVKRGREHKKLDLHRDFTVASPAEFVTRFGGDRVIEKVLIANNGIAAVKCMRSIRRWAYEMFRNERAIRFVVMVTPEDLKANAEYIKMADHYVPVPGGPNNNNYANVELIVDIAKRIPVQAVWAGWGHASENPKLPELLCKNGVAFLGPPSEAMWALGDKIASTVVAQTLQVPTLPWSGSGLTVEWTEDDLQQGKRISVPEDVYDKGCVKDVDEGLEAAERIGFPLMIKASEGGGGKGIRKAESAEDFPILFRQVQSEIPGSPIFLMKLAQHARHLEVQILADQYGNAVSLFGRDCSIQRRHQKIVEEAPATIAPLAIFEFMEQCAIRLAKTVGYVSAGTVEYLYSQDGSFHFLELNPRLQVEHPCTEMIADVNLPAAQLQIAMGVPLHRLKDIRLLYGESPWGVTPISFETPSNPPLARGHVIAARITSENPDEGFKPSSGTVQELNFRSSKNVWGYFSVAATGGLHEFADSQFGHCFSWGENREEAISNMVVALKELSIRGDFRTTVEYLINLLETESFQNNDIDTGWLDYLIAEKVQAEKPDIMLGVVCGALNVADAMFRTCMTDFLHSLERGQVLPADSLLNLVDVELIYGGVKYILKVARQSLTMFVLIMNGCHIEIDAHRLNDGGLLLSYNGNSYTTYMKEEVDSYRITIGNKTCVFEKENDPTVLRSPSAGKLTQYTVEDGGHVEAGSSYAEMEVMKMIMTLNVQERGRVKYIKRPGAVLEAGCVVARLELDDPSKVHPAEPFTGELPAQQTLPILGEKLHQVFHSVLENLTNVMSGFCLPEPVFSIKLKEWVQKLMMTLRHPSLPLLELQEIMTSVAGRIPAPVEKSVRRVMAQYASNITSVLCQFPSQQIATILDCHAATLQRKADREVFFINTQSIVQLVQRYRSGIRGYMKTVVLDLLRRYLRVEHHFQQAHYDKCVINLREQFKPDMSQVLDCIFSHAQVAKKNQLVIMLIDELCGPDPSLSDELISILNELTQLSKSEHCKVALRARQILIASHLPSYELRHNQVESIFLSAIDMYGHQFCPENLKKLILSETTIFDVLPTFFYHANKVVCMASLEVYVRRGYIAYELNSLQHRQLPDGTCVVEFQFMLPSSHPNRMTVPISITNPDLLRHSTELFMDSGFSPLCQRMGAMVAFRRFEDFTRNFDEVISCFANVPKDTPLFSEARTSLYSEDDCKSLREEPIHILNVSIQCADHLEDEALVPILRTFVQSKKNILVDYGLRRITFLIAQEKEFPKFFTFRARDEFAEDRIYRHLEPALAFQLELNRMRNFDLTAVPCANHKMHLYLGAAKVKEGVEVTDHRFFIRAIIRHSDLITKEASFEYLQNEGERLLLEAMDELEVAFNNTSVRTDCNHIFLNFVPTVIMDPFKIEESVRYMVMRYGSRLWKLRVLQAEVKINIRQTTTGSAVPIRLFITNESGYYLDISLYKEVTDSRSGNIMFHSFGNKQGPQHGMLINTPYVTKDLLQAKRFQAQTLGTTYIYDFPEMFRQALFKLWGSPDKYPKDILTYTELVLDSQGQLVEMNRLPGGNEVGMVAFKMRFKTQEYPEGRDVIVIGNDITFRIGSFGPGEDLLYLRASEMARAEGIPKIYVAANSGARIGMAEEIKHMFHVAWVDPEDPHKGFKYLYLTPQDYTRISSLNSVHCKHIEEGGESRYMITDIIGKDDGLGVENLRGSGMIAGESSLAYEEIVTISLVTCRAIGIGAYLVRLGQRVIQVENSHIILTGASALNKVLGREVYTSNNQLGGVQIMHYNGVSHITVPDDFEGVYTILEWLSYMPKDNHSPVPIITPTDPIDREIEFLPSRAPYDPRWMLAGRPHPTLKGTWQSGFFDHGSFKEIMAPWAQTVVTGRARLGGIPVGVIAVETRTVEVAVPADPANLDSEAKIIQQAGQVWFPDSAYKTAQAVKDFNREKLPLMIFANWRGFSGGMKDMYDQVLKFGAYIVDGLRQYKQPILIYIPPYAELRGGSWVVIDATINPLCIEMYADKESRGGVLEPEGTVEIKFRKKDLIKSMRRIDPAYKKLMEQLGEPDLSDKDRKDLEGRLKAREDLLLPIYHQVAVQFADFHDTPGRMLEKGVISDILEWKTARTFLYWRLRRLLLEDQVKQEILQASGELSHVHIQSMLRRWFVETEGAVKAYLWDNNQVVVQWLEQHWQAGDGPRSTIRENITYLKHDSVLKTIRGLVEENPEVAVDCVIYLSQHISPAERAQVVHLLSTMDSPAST

The target of this experiment is human ACC2 (Homo sapiens (Human), UniProt O00763). Nature of the experiment: ACC2 assay, spectrophotometric 384 well assay (NADH-linked, coupled lactate dehydrogenase/pyruvate kinase reaction). The class given is biochemical. The conditions noted are these: hACC2 construct lacking the 128 N-terminal amino acids; 25° C., 340 nm, 15 minutes. As for the experimental part:
Spectrophotometric 384 Well Assay
Malonyl CoA formation by acetyl CoA carboxylases is stoichometrically linked to the consumption of ATP. ACC2 activity is measured in a NADH-linked kinetic method measuring ADP generated during the ACC reaction using a coupled lactate dehydrogenase/pyruvate kinase reaction.
For biological testing, a human ACC2 construct which lacks the 128 amino acids at the N-terminus for increased solubility (nt 385-6966 in Genbank entry AJ575592) is cloned. The protein is then expressed in insect cells using a baculoviral expression system. Protein purification is performed by anion exchange.
All compounds are dissolved in dimethyl sulfoxide (DMSO) to a concentration of 10 mM.
Assay reactions are then carried out in 384-well plates, with hACC2 in an appropriate dilution and at final assay concentrations (f.c.) of 100 mM Tris (pH 7.5), 10 mM trisodium citrate, 25 mM KHCC3, 10 mM MgCl2, 0.5 mg/ml BSA, 3.75 mM reduced L-glutathione, 15 U/ml lactate dehydrogenase, 0.5 mM phosphoenolpyruvate, 15 U/ml pyruvate kinase, compounds at different concentrations at final DMSO concentrations of 1%.
The enzymatic reaction is then started by addition of a mixture of NADH, acetyl Coenzyme A (both 200 μM f.c.) and ATP (500 uM f.c.). The decrease of the optical density (slope S) is then determined at 25° C. at a wavelength of 340 nm over 15 minutes in a spectrophotometric reader.
Each assay microtiter plate contains wells with vehicle instead of compound as controls for the non-inhibited enzyme (100% CTL; ‘HIGH’) and wells without acetyl-CoA as controls for non-specific NADH degradation (0% CTL; ‘LOW’).
The slope S is used for calculation of % CTL=(S(compound)−S(‘LOW’))/(S(‘HIGH’)−S(‘LOW’))*100. Compounds will give values between 100% CTL (no inhibition) and 0% CTL (complete inhibition).
For IC50 value determination, the sample slope in the presence of the test compound after subtraction of the low controls (S(compound)−S(‘LOW’)) are used.
An IC50 value is derived from the compound slopes at different dosages after subtraction of the low controls (S(compound)−S(‘LOW’)) by non-linear regression curve fitting (equation y=(A+((B−A)/(1+((C/x)^D))))).
In the following table the activity expressed as IC50 (μM) of compounds according to the invention is presented wherein the IC50 values are determined in the ACC2 assay as described hereinbefore. The term “Ex.” refers to the example numbers according to the following experimental section.
For `CC(Cc1ccc(C2CN(c3ccc(OCC4CC4)cc3)C2)cc1)NC(=O)C1(C)CC1` (stereo not drawn) [Example 3.63], the IC50 amounted to 1220 nM. That is a single-digit micromolar value.

Take `C[C@H](NC(=O)C1CC1)c1ccc(C2CN(c3ccc4c(c3)OCCO4)C2)cc1` [Example 3.64]: half-maximal inhibition (IC50) required 2460 nM.

With `Cc1nocc1C(=O)N[C@@H](C)c1ccc(C2CN(c3ccc4c(c3)OCCO4)C2)cc1` [Example 3.65], the IC50 came to 1180 nM.

For the compound `C=CCC(=O)N[C@@H](C)c1ccc(C2CN(c3ccc4c(c3)OCCO4)C2)cc1` [Example 3.66], the IC50 is 970 nM.

`CC(=O)NCCCC(=O)NC(C)Cc1ccc(C2CN(c3ccc(OCC4CC4)cc3)C2)cc1` (stereo not drawn) [Example 3.67] yielded an IC50 of 1680 nM.

With `CCC(=O)N[C@@H](C)c1ccc(C2CN(c3ccc4c(c3)OCCO4)C2)cc1` [Example 3.68], the IC50 stood at 1000 nM.

`CC(=O)Nc1cc(C(=O)N[C@@H](C)c2ccc(C3CN(c4ccc5c(c4)OCCO5)C3)cc2)ccn1` [Example 3.69]: the IC50 turned out to be 2400 nM. Compared with the last compound, the IC50 is about 2.4-fold higher.

`C[C@H](NC(=O)C(F)F)c1ccc(C2CN(c3ccc4c(c3)OCCO4)C2)cc1` [Example 3.70] gave an IC50 of 1020 nM.

The compound `C[C@H](NC(=O)c1cnn(C)c1)c1ccc(C2CN(c3ccc4c(c3)OCCO4)C2)cc1` [Example 3.71] had an IC50 of 1690 nM. This IC50 is about 1.7-fold higher than that of the compound before.

With `CC(=O)Nc1nc(C)c(C(=O)N[C@@H](C)c2ccc(C3CN(c4ccc5c(c4)OCCO5)C3)cc2)s1` [Example 3.72], the 50% inhibitory concentration (IC50) came to 1970 nM.

Compound `C[C@H](NC(=O)c1ccon1)c1ccc(C2CN(c3ccc4c(c3)OCCO4)C2)cc1` [Example 3.73] showed an IC50 of 2490 nM.

Compound `Cc1oncc1C(=O)NC(C)Cc1ccc(C2CN(c3ccc(OCC4CC4)cc3)C2)cc1` (stereo not drawn) [Example 3.74] had an IC50 of 960 nM.

As to `C[C@H](NC(=O)C(C)(C)O)c1ccc(C2CN(c3ccc(OCC4CC4)cc3)C2)cc1` [Example 3.75], the midpoint of inhibition, the IC50, lay at 3080 nM.

Take `Cc1oncc1C(=O)NC(C)Cc1ccc(C2CN(c3ccc4c(c3)OCCO4)C2)cc1` (stereo not drawn) [Example 3.76]: it took 2820 nM to reach half-maximal inhibition (IC50).

`CC(Cc1ccc(C2CN(c3ccc(OCC4CC4)cc3)C2)cc1)NC(=O)c1ccon1` (stereo not drawn) [Example 3.77] returned an IC50 of 1700 nM.

With `C[C@H](NC(=O)CC#N)c1ccc(C2CN(c3ccc(OCC4CC4)cc3)C2)cc1` [Example 3.78], the IC50 came out at 1220 nM.

With `CCOC(=O)C1(F)CC1C(=O)NC(C)Cc1ccc(C2CN(c3ccc(OCC4CC4)cc3)C2)cc1` (stereo not drawn) [Example 3.79], the midpoint of inhibition, the IC50, lay at 2300 nM.

As for `C[C@H](NC(=O)CCO)c1ccc(C2CN(c3ccc(OCC4CC4)cc3)C2)cc1` [Example 3.80], the IC50 came out at 2440 nM.

Regarding `C[C@H](NC(=O)c1ccon1)c1ccc(C2CN(c3ccc(OCC4CC4)cc3)C2)cc1` [Example 3.81], 1400 nM corresponded to half-maximal inhibition (IC50).

The compound `C[C@H](NC(=O)CO)c1ccc(C2CN(c3ccc(OCC4CC4)cc3)C2)cc1` [Example 3.82] returned an IC50 of 1620 nM.

In turn, `CCC(=O)NC(C)Cc1ccc(C2CN(c3ccc4c(c3)OCCO4)C2)cc1` (stereo not drawn) [Example 3.83] gave an IC50 of 3130 nM.

`CC(Cc1ccc(C2CN(c3ccc4c(c3)OCCO4)C2)cc1)NC(=O)C(F)F` (stereo not drawn) [Example 3.84] gave an IC50 of 3600 nM.

As to `C[C@H](NC(=O)C(F)F)c1ccc(C2CN(c3ccc(OCC4CC4)cc3)C2)cc1` [Example 3.85], half-maximal inhibition (IC50) was put at 360 nM.

For the compound `C[C@H](NC(=O)c1cncs1)c1ccc(C2CN(c3ccc(OCC4CC4)cc3)C2)cc1` [Example 3.86], the IC50 was 450 nM.

For `Cc1nocc1C(=O)N[C@@H](C)c1ccc(C2CN(c3ccc(OCC4CC4)cc3)C2)cc1` [Example 3.87], the IC50 was 470 nM.

`C[C@H](NC(=O)C(C)(F)F)c1ccc(C2CN(c3ccc(OCC4CC4)cc3)C2)cc1` [Example 3.88] returned an IC50 of 530 nM.

`C[C@H](NC(=O)CF)c1ccc(C2CN(c3ccc(OCC4CC4)cc3)C2)cc1` [Example 3.89] yielded an IC50 of 550 nM. This IC50 and that of the compound before are within 1.5-fold of each other.

Regarding `C[C@H](NC(=O)c1cnn(C)c1)c1ccc(C2CN(c3ccc(OCC4CC4)cc3)C2)cc1` [Example 3.90], inhibition was half-maximal at 620 nM (IC50). This IC50 and that of the compound before are within 1.5-fold of each other.

`C=CCC(=O)N[C@@H](C)c1ccc(C2CN(c3ccc(OCC4CC4)cc3)C2)cc1` [Example 3.91]: it took 630 nM to reach half-maximal inhibition (IC50).

In turn, `CC(=O)N[C@@H](C)c1ccc(C2CN(c3ccnc(N(C)CC(F)F)n3)C2)cc1` [Example 4.1, (S)—N-(1-(4-(1-(2-((2,2-difluoroethyl)(methyl)amino)pyrimidin-4-yl)azetidin-3-yl)phenyl)ethyl)acetamide] returned an IC50 of 1820 nM. Compared with the last compound, the IC50 is about 2.9-fold higher.

For the compound `CC(=O)N[C@@H](C)c1ccc(C2CN(c3nc(N(C)CC(F)F)ncc3F)C2)cc1` [Example 4.2], the midpoint of inhibition, the IC50, lay at 1010 nM.

Compound `CC(=O)N[C@@H](C)c1ccc(C2CN(c3nc(N(C)C)ncc3F)C2)cc1` [Example 4.3] gave an IC50 of 1510 nM.

Regarding `CC(=O)N[C@@H](C)c1ccc(C2CN(c3ccnc(OCC4CC4(F)F)c3F)C2)cc1` (stereo partly drawn) [Example 5.1, N-((1S)-1-(4-(1-(2-((2,2-difluorocyclopropyl)methoxy)-3-fluoropyridin-4-yl)azetidin-3-yl)phenyl)ethyl)acetamide], the IC50 is 1450 nM. This IC50 and that of the compound before are within 1.5-fold of each other.

`CC(=O)N[C@@H](C)c1ccc(C2CN(c3ccnc(OCC(F)F)c3)C2)cc1` [Example 5.2] returned an IC50 of 1220 nM. The IC50 values of the last two compounds are within 1.5-fold of each other.

`CC(=O)N[C@@H](C)c1ccc(C2CN(c3ccnc(OCC4CC4)c3)C2)cc1` [Example 5.3] came in with an IC50 of 1590 nM.

Consider `CCCOc1ncnc(N2CC(c3ccc([C@H](C)NC(C)=O)cc3)C2)c1Cl` [Example 5.4], for which the IC50 was 680 nM.

Turning to `CC(=O)N[C@@H](C)c1ccc(C2CN(c3ncnc(OCC4CC4)c3Cl)C2)cc1` [Example 5.5], the IC50 stood at 380 nM.

Take `CC(=O)N[C@@H](C)c1ccc(C2CN(c3ncnc(OCC4CC4(F)F)c3F)C2)cc1` (stereo partly drawn) [Example 5.6]: 540 nM corresponded to half-maximal inhibition (IC50).

As to `CC(=O)N[C@@H](C)c1ccc(C2CN(c3ncnc(OCC4CC4)c3F)C2)cc1` [Example 5.7], half-maximal inhibition (IC50) required 400 nM.

One may read the IC50 as the point on the concentration scale where inhibition reaches its midpoint. The low end stands for higher potency, the high end for lower potency.
